This note sets out measurements from ChEMBL document CHEMBL1158148, “Characterization of an irritant 4-deoxyphorbol diester from Euphorbia tirucalli” (J Nat Prod, 1979).

Series [1] is filed under the species Mus musculus. As to the kind of experiment: Toxicity against Swiss-Webster mouse assessed as irritation in ear per 5 ul after 4 hrs. In kind it is organism-based. Particulars: in vivo, topical_or_ocular.
The species entered for series [2] is Mus musculus. As to the kind of experiment: Toxicity against Swiss-Webster mouse assessed as irritation in ear per 5 ul after 24 hrs. In kind it is organism-based. Particulars: in vivo, topical_or_ocular.

Consider `CCCCCCCCCCCCCC(=O)O[C@@H]1[C@@H](C)[C@@]2(O)[C@@H](C=C(CO)C[C@]3(O)C(=O)C(C)=C[C@@H]23)[C@@H]2C(C)(C)[C@]12OC(C)=O` [PHORBOL MYRISTATE ACETATE], for which the ID50 is 0.04 µg in series [1] and 0.05 µg in series [2].

`CCC/C=C/C=C\C(=O)O[C@@H]1[C@@H](C)[C@]2(O)[C@@H]3C=C(C)C(=O)[C@@H]3CC(CO)=C[C@H]2[C@@H]2C(C)(C)[C@]12O`: the ID50 in series [1] and in series [2] was over 100 µg in each case.

On to `CC1=C[C@H]2[C@@]3(O)[C@H](C)[C@@H](OC(=O)c4ccccc4)[C@]4(OC(=O)c5ccccc5)[C@H]([C@@H]3C=C(CO)C[C@]2(O)C1=O)C4(C)C`, for which the ID50 was 0.6 µg in series [1] and 0.83 µg in series [2].

For `CCC/C=C/C=C\C(=O)O[C@@H]1[C@@H](C)[C@]2(O)[C@@H]3C=C(C)C(=O)[C@H]3CC(CO)=C[C@H]2[C@@H]2C(C)(C)[C@]12OC(C)=O`, the ID50 was found to be 0.04 µg in series [1] and 0.07 µg in series [2].
